Here are results for 25 compounds from patent US8101774B2, “Ester derivatives and medicinal use thereof” (Japan Tobacco Inc., priority 2004, dated 2012).

What is called IC50 is the concentration at which inhibition is half-maximal. A low value points to greater potency.

This test has as its target T1, Microsomal triglyceride transfer protein (MTP) from human small intestine microsome (Homo sapiens, UniProt P55157).
T1 construct: Human small intestine microsome was dialyzed against 10 mM phosphate buffer; tissue Tissue Transforming Technologies, Inc; host or cells: human small intestine microsome
Put plainly: Inhibition test of interliposomal triglyceride (TG) transfer activity by MTP. It counts as biochemical. Particulars: purified MTP from human small intestine microsome, 37° C., 1.5 hours. Put shortly:
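DEAE-purified human small intestine MTP (50 μL of 20 μg/mL) incubated 1.5 hours at 37° C with ^14C-triolein donor and unlabelled acceptor SUV liposomes in pH 7.4 Tris buffer with 0.5% BSA. Donor removed on DEAE cellulose; acceptor radioactivity counted, blank-corrected against DMSO control, giving percent inhibition and IC50.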

T1 sequence (P55157 19-894): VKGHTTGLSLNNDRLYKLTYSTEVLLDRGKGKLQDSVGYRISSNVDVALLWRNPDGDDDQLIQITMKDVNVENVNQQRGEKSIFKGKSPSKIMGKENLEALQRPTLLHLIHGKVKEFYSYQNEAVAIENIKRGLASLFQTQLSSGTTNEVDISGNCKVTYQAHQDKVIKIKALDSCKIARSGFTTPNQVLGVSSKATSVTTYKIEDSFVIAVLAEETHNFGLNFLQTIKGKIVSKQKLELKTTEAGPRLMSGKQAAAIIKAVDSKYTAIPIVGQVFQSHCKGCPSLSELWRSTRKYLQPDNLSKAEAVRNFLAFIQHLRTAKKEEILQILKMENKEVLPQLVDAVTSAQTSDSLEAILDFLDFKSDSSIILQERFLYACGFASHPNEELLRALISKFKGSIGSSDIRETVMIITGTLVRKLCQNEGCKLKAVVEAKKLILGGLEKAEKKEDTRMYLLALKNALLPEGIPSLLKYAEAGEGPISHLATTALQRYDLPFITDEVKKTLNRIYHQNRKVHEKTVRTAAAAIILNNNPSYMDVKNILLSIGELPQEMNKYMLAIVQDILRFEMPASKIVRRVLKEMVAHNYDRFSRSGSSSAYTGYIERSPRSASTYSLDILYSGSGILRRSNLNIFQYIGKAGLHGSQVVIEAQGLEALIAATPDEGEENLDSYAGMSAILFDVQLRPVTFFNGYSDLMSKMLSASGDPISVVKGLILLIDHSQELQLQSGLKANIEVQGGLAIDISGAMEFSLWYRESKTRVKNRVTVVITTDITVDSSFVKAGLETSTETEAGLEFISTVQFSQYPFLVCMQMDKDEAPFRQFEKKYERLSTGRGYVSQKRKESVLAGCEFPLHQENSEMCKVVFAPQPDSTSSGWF
T1 sequence (P07237 18-508 partner): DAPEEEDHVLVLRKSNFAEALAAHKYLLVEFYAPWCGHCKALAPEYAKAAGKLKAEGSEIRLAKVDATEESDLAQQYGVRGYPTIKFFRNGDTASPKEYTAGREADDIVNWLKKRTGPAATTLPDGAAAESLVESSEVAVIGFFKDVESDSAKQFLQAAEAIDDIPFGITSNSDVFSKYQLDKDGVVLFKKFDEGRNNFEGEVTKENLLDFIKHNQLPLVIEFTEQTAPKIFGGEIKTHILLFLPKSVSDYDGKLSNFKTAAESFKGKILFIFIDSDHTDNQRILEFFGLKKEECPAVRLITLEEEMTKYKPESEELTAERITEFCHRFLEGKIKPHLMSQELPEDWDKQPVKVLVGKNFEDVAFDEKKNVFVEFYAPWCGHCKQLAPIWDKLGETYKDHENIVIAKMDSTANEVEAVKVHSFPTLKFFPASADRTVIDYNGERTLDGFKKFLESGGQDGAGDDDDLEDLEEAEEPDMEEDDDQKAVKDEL

`COC(=O)c1cc(C)c(OC(=O)CCCc2ccc(NC(=O)c3ccc(C)nc3-c3ccc(C(F)(F)F)cc3)c(C(=O)N(C)C)c2)c(F)c1` [Compound 1-41, 4-[4-(3-dimethylcarbamoyl-4-{[6-methyl-2-(4-trifluoromethylphenyl)pyridine-3-carbonyl]amino}phenyl)butyryloxy]-3-fluoro-5-methylbenzoic acid methyl ester] returned an IC50 of less than 10 nM.

With `CN(C)C(=O)c1cc(CCCC(=O)Oc2ccc(C#N)cc2)ccc1NC(=O)c1ccccc1-c1ccc(C(F)(F)F)cc1` [Compound 1-23, 4-{3-dimethylcarbamoyl-4-[(4′-trifluoromethylbiphenyl-2-carbonyl)amino]phenyl}butyric acid 4-cyanophenyl ester], the IC50 was in the range of 10 to 100 nM.

Turning to `CN(C)C(=O)c1cc(CCCC(=O)Oc2ccc(C(=O)OCCN3CCCC3=O)cc2)ccc1NC(=O)c1ccccc1-c1ccc(C(F)(F)F)cc1` [Compound 1-91, 4-[4-(3-dimethylcarbamoyl-4-{(4′-trifluoromethylbiphenyl-2-carbonyl)amino}phenyl)butyryloxy]benzoic acid 2-(2-oxopyrrolidin-1-yl)ethyl ester], the IC50 was less than 10 nM.

Compound `CC(C)OC(=O)c1ccc(OC(=O)CCCc2ccc(NC(=O)c3cccnc3-c3ccc(C(F)(F)F)cc3)c(C(=O)N(C)C)c2)cc1` [Compound 1-31, 4-[4-(3-dimethylcarbamoyl-4-{[2-(4-trifluoromethylphenyl)pyridine-3-carbonyl]amino}phenyl)butyryloxy]benzoic acid isopropyl ester] showed an IC50 of 10 to 100 nM.

In turn, `COC(=O)c1cc(C)c(OC(=O)CCCc2ccc(NC(=O)c3ccc(C)nc3-c3ccc(C(F)(F)F)cc3)c(C(=O)N(C)C)c2)c(Cl)c1` [Compound 1-35, 3-chloro-4-[4-(3-dimethylcarbamoyl-4-{[6-methyl-2-(4-trifluoromethylphenyl)pyridine-3-carbonyl]amino}phenyl)butyryloxy]-5-methylbenzoic acid methyl ester] yielded a concentration for half-maximal inhibition (IC50) of less than 10 nM.

`COC(=O)c1cc(C)c(OC(=O)CCCc2ccc(NC(=O)c3ccc(C)nc3-c3ccc(C(F)(F)F)cc3)c(C(=O)N(C)C)c2)c(C(F)(F)F)c1` [Compound 1-45, 4-[4-(3-dimethylcarbamoyl-4-{[6-methyl-2-(4-trifluoromethylphenyl)pyridine-3-carbonyl]amino}phenyl)butyryloxy]-3-methyl-5-trifluoromethylbenzoic acid methyl ester] registered an IC50 of less than 10 nM.

For the compound `COC(=O)c1cc(OC)c(OC(=O)CCCc2ccc(NC(=O)c3ccc(C)nc3-c3ccc(C(F)(F)F)cc3)c(C(=O)N(C)C)c2)c(C(F)(F)F)c1` [Compound 1-47, 4-[4-(3-dimethylcarbamoyl-4-{[6-methyl-2-(4-trifluoromethylphenyl)pyridine-3-carbonyl]amino}phenyl)butyryloxy]-3-methoxy-5-trifluoromethylbenzoic acid methyl ester], the IC50 is less than 10 nM.

Turning to `CN(C)C(=O)c1cc(CCCC(=O)Oc2ccc(C(=O)OCc3ccccc3)cc2)ccc1NC(=O)c1ccccc1-c1ccc(C(F)(F)F)cc1` [Compound 1-24, 4-(4-{3-dimethylcarbamoyl-4-[(4′-trifluoromethylbiphenyl-2-carbonyl)amino]phenyl}butyryloxy)benzoic acid benzyl ester], the IC50 was less than 10 nM.

Take `COC(=O)c1ccc(OC(=O)CCCc2ccc(NC(=O)c3ccccc3-c3ccc(C(F)(F)F)cc3)c(C(=O)N(C)C)c2)c(C(=O)OC)c1` [Compound 1-33, 4-(4-{3-dimethylcarbamoyl-4-[(4′-trifluoromethylbiphenyl-2-carbonyl)amino]phenyl}butyryloxy)isophthalic acid dimethyl ester]: the 50% inhibitory concentration (IC50) is less than 10 nM.

Consider `COC(=O)c1ccc(OC(=O)CCCc2ccc(NC(=O)c3ccc(C)nc3-c3ccc(C(F)(F)F)cc3)c(C(=O)N(C)C)c2)c(C(=O)OC)c1` [Compound 1-70, 4-[4-(3-dimethylcarbamoyl-4-{[6-methyl-2-(4-trifluoromethylphenyl)pyridine-3-carbonyl]amino}phenyl)butyryloxy]isophthalic acid dimethyl ester], for which the IC50 was less than 10 nM.

The compound `COC(=O)c1ccc(OC(=O)CCCc2ccc(NC(=O)c3ccccc3-c3ccc(C(F)(F)F)cc3)c(C(=O)N3CCOCC3)c2)cc1` [Compound 1-26, 4-(4-{3-(morpholine-4-carbonyl)-4-[(4′-trifluoromethylbiphenyl-2-carbonyl)amino]phenyl}butyryloxy)benzoic acid methyl ester] gave an IC50 of 10 to 100 nM.

`CN(C)C(=O)c1cc(CCCC(=O)Oc2ccc(C(=O)OCCOCc3ccccc3)cc2)ccc1NC(=O)c1ccccc1-c1ccc(C(F)(F)F)cc1` [Compound 1-89, 4-[4-(3-dimethylcarbamoyl-4-{(4′-trifluoromethylbiphenyl-2-carbonyl)amino}phenyl)butyryloxy]benzoic acid 2-benzyloxyethyl ester] showed an IC50 of less than 10 nM.

For `COC(=O)c1cc(OC)c(OC(=O)CCCc2ccc(NC(=O)c3ccc(C)nc3-c3ccc(C(F)(F)F)cc3)c(C(=O)N(C)C)c2)c(C(=O)OC)c1` [Compound 1-53, 4-[4-(3-dimethylcarbamoyl-4-{[6-methyl-2-(4-trifluoromethylphenyl)pyridine-3-carbonyl]amino}phenyl)butyryloxy]-5-methoxyisophthalic acid dimethyl ester], the IC50 is less than 10 nM.

As for `COC(=O)c1ccc(OC(=O)C2CCN(c3ccc(NC(=O)c4ccccc4-c4ccc(C(F)(F)F)cc4)c(C(=O)N(C)C)c3)CC2)c(F)c1` [Compound 3-2, 1-{3-dimethylcarbamoyl-4-[(4′-trifluoromethylbiphenyl-2-carbonyl)amino]phenyl}piperidine-4-carboxylic acid 2-fluoro-4-methoxycarbonylphenyl ester], the IC50 lay within 10 to 100 nM.

Turning to `CN(C)C(=O)c1cc(CCCC(=O)Oc2ccc(-c3nnn(CC(=O)OCc4ccccc4)n3)cc2)ccc1NC(=O)c1ccccc1-c1ccc(C(F)(F)F)cc1` [Compound 1-104, 4-(3-dimethylcarbamoyl-4-{(4′-trifluoromethylbiphenyl-2-carbonyl)amino}phenyl)butyric acid 4-(2-benzyloxycarbonylmethyl-2H-tetrazol-5-yl)phenyl ester], the IC50 is less than 10 nM.

Compound `Cc1noc(-c2ccc(OC(=O)CCCc3ccc(NC(=O)c4ccccc4-c4ccc(C(F)(F)F)cc4)c(C(=O)N(C)C)c3)cc2)n1` [Compound 1-2, 4-{3-dimethylcarbamoyl-4-[(4′-trifluoromethylbiphenyl-2-carbonyl)amino]phenyl}butyric acid 4-(3-methyl-[1,2,4]oxadiazol-5-yl)phenyl ester] registered an IC50 of less than 10 nM.

On to `CCOc1cc(C(=O)OC)cc(Cl)c1OC(=O)CCCc1ccc(NC(=O)c2ccc(C)nc2-c2ccc(C(F)(F)F)cc2)c(C(=O)N(C)C)c1` [Compound 1-40, 3-chloro-4-[4-(3-dimethylcarbamoyl-4-{[6-methyl-2-(4-trifluoromethylphenyl)pyridine-3-carbonyl]amino}phenyl)butyryloxy]-5-ethoxybenzoic acid methyl ester], for which the IC50 was less than 10 nM.

Regarding `CC(C)OC(=O)c1ccc(OC(=O)CCCc2ccc(NC(=O)c3ccncc3-c3ccc(C(F)(F)F)cc3)c(C(=O)N(C)C)c2)cc1` [Compound 1-29, 4-[4-(3-dimethylcarbamoyl-4-{[3-(4-trifluoromethylphenyl)pyridine-4-carbonyl]amino}phenyl)butyryloxy]benzoic acid isopropyl ester], the IC50 is less than 10 nM.

The compound `COC(=O)c1cc(C)c(OC(=O)CCCc2ccc(NC(=O)c3ccccc3-c3ccc(C(F)(F)F)cc3)c(C(=O)N(C)C)c2)c(Cl)c1` [Compound 1-34, 3-chloro-4-(4-{3-dimethylcarbamoyl-4-[(4′-trifluoromethylbiphenyl-2-carbonyl)amino]phenyl}butyryloxy)-5-methylbenzoic acid methyl ester] came in with an IC50 of less than 10 nM.

The compound `COC(=O)c1ccc(OC(=O)CCCc2ccc(NC(=O)c3ccccc3-c3ccc(C(F)(F)F)cc3)c(C(=O)N(C)C)c2)cc1` [Compound 1-5] came in with an IC50 of less than 10 nM.

In turn, `COC(=O)c1ccc(OC(=O)C2CCN(c3ccc(NC(=O)c4ccccc4-c4ccc(C(F)(F)F)cc4)c(C(=O)N(C)C)c3)CC2)cc1` [Compound 3-1, 1-{3-dimethylcarbamoyl-4-[(4′-trifluoromethylbiphenyl-2-carbonyl)amino]phenyl}piperidine-4-carboxylic acid 4-methoxycarbonylphenyl ester] registered an IC50 of 10 to 100 nM.

As to `CCc1cc(C(=O)OC)cc(C(=O)OC)c1OC(=O)CCCc1ccc(NC(=O)c2ccc(C)nc2-c2ccc(C(F)(F)F)cc2)c(C(=O)N(C)C)c1` [Compound 1-51, 4-[4-(3-dimethylcarbamoyl-4-{[6-methyl-2-(4-trifluoromethylphenyl)pyridine-3-carbonyl]amino}phenyl)butyryloxy]-5-ethylisophthalic acid dimethyl ester], the IC50 is less than 10 nM.

Compound `CN(C)C(=O)c1cc(CCC(=O)Oc2ccccc2)ccc1NC(=O)c1ccccc1-c1ccc(C(F)(F)F)cc1` [Compound 1-1, 3-{3-dimethylcarbamoyl-4-[(4′-trifluoromethylbiphenyl-2-carbonyl)amino]phenyl}propionic acid phenyl ester] had an IC50 of 10 to 100 nM.

Take `CC(OC(=O)c1ccc(OC(=O)CCCc2ccc(NC(=O)c3ccccc3-c3ccc(C(F)(F)F)cc3)c(C(=O)N(C)C)c2)cc1)c1ccccc1` (stereo not shown) [Compound 1-106, 4-[4-(3-dimethylcarbamoyl-4-{(4′-trifluoromethylbiphenyl-2-carbonyl)amino}phenyl)butyryloxy]benzoic acid 1-phenylethyl ester]: the IC50 was less than 10 nM.

`CN(C)C(=O)c1cc(CCCC(=O)Oc2ccc(C(=O)OCc3ccsc3)cc2)ccc1NC(=O)c1ccccc1-c1ccc(C(F)(F)F)cc1` [Compound 1-99, 4-[4-(3-dimethylcarbamoyl-4-{(4′-trifluoromethylbiphenyl-2-carbonyl)amino}phenyl)butyryloxy]benzoic acid thiophen-3-ylmethyl ester] came in with an IC50 of less than 10 nM.
